Reference: patent US7692014B2, “Inhibitors of the HIV integrase enzyme” (Pfizer, Inc., priority 2004, dated 2010)

The molecules below were run against T1, Full-length wild type HIV-1 integrase (SF1) (Human immunodeficiency virus type 1 group M subtype B, UniProt P04585) (assay: Integrase strand-transfer scintillation proximity assay). Settings: IC50, integrase strand-transfer SPA.
T1 construct: made in house; host or cells: E. coli BL21 (DE3), pET24a vector
Assay type: biochemical
Text: Integrase Strand-Transfer Scintillation Proximity Assay Oligonucleotides
The annealed product represents preprocessed viral ds-DNA derived from the LTR U5 sequence of the viral genome. A ds-DNA control to test for non-specific interactions was made using a 3′ di-deoxy derivative of oligonucleotide #1 annealed to oligonucleotide #2. The CA overhang at the 5′ end of the non-biotinylated strand of the ds-DNA was created artificially by using a complimentary DNA oligonucleotide shortened by 2 base pairs. This configuration eliminates the requisite 3′ processing step of the integrase enzyme prior to the strand-transfer mechanism.
Host ds-DNA was prepared as an unlabeled and [^3H]-thymidine labeled product from annealed oligonucleotide #3—5-[…]-3′ (SEQ ID NO: 3), and oligonucleotide #4—5′-[…]-3′ (SEQ ID NO: 4), both synthesized by TriLink BioTechnologies, Inc. (San Diego, Calif.). The annealed product had overhanging 3′ ends of poly(dA). […] The radiolabeled product was purified using a NENSORB cartridge and stored in stabilized aqueous solution (PerkinElmer).
Reagents: Streptavidin-coated polyvinyltoluene (PVT) SPA beads were purchased from Amersham Biosciences (Piscataway, N.J.). Cesium chloride was purchased from Shelton Scientific, Inc. (Shelton, Conn.). White, polystyrene, flat-bottom, non-binding surface, 96-well plates were purchased from Corning. All other buffer components were purchased from Sigma (St. Louis, Mo.) unless otherwise indicated. Enzyme Construction: Full-length wild type HIV-1 integrase (SF1) sequence (amino acids 1-288) was constructed in a pET24a vector (Novagen, Madison, Wis.). […] Enzyme Purification: Full length wild-type HIV Integrase was expressed in E.coli BL21 (DE3) cells and induced with 1 mM isopropyl-1 thio-β-D-galactopyranoside (IPTG) when cells reached an optical density between 0.8-1.0 at 600 nm. Cells were lysed by microfluidation in 50 mM HEPES pH 7.0, 75 mM NaCl, 5 mM DTT, 1 mM 4-(2-Aminoethyl)benzenesulfonylfluoride HCl (AEBSF). Lysate was then centrifuged 20 minutes at 11 k rpm in GSA rotor in Sorvall RC-5B at 4° C. Supernant was discarded and pellet resuspended in 50 mM HEPES pH 7.0, 750 mM NaCl, 5 mM DTT, 1 mM AEBSF and homogenized in a 40 mL Dounce homogenizer for 20 minutes on ice. Homogenate was then centrifuged 20 minutes at 11 k rpm in SS34 rotor in Sorvall RC-5B at 4° C. Supernant was discarded and pellet resuspended in 50 mM HEPES pH 7.0, 750 mM NaCl, 25 mM CHAPS, 5 mM DTT, 1 mM AEBSF. Preparation was then centrifuged 20 minutes at 11 k rpm in SS34 rotor in Sorvall RC-5B at 4° C.
Supernant was then diluted 1:1 with 50 mM HEPES pH 7.0, 25 mM CHAPS, 1 mM DTT, 1 mM AEBSF and loaded onto a Q-Sepharose column pre-equilibrated with 50 mM HEPES, pH 7.0, 375 mM NaCl, 25 mM CHAPS, 1 mM DTT, 1 mM AEBSF. The flow through peak was collected and NaCl diluted to 0.1 M with 50 mM HEPES pH 7.0, 25 mM CHAPS, 1 mM DTT, 0.5 mM AEBSF and loaded onto a SP-Sepharose column pre-equilibrated with 50 mM HEPES pH 7.0, 100 mM NaCl, 25 mM CHAPS, 1 mM DTT, 0.5 mM AEBSF. After washing the column with the equilibration buffer, a 100 to 400 mM NaCl gradient was run. The eluted integrase was concentrated and run on a S-300 gel diffusion column using 50 mM HEPES pH 7.0, 500 mM NaCl, 25 mM CHAPS, 1 mM DTT, 0.5 mM AEBSF. […] All columns were run in a 4° C. cold room.
Viral DNA Bead Preparation: Streptavidin-coated SPA beads were suspended to 20 mg/mL in 25 mM 3-morpholinopropanesulfonic acid (MOPS) (pH 7.2) and 1.0% NaN3.

Compound | IC50 [nM]
NC(=O)[C@@H]1CCCN1Cc1cn(Cc2ccc(F)cc2)c2cnc3c(=O)n(O)ccc3c12 [Example 5, 1-{[3-(4-fluorobenzyl)-7-hydroxy-6-oxo-6,7-dihydro-3H-pyrrolo[2,3-c]-1,7-naphthyridin-1-yl]methyl}-L-prolinamide] | 18

Same assay, conditions: integrase strand-transfer SPA; read-out: IC50

Compound | IC50 [nM]
CC(=O)N1CCN(C(=O)c2cn(Cc3ccc(F)cc3)c3cnc4c(=O)n(O)ccc4c23)CC1 [Example 27, 1-[(4-acetylpiperazin-1-yl)carbonyl]-3-(4-fluorobenzyl)-7-hydroxy-3,7-dihydro-6H-pyrrolo[2,3-c]-1,7-naphthyridin-6-one] | 13
O=C(c1cn(Cc2ccc(F)cc2)c2cnc3c(=O)n(O)ccc3c12)N1CCCC1 [Example 26, 3-(4-fluorobenzyl)-7-hydroxy-1-(pyrrolidin-1-ylcarbonyl)-3,7-dihydro-6H-pyrrolo[2,3-c]-1,7-naphthyridin-6-one] | 9
CN(CCc1ccccn1)Cc1cn(Cc2ccc(F)cc2)c2cnc3c(=O)n(O)ccc3c12 [Example 16, 3-(4-fluorobenzyl)-7-hydroxy-1-{[methyl (2-pyridin-2-ylethyl)amino]methyl}-3,7-dihydro-6H-pyrrolo[2,3-c]-1,7-naphthyridin-6-one] | 6
CC(C)(C)OC(=O)N1CCC(COCc2cn(Cc3ccc(F)cc3)c3cnc4c(=O)n(O)ccc4c23)CC1 [Example 32] | 108
CCS(=O)(=O)N1CCN(Cc2cn(Cc3ccc(F)cc3)c3cnc4c(=O)n(O)ccc4c23)CC1 [Example 52, 1-{[4-(ethylsulfonyl)piperazin-1-yl]methyl}-3-(4-fluorobenzyl)-7-hydroxy-3,7-dihydro-6H-pyrrolo[2,3-c]-1,7-naphthyridin-6-one] | 10.5
O=c1c2ncc3c(c(CN4CCN(CCN5CCOCC5)CC4)cn3Cc3ccc(F)cc3)c2ccn1O [Example 58, 3-(4-fluorobenzyl)-7-hydroxy-1-{[4-(2-morpholin-4-ylethyl)piperazin-1-yl]methyl}-3,7-dihydro-6H-pyrrolo[2,3-c]-1,7-naphthyridin-6-one] | 22
O=c1c2ncc3c(c(COCCc4ccccn4)cn3Cc3ccc(F)cc3)c2ccn1O [Example 33, 3-(4-fluorobenzyl)-7-hydroxy-1-[(2-pyridin-2-ylethoxy)methyl]-3,7-dihydro-6H-pyrrolo[2,3-c]-1,7-naphthyridin-6-one] | 26
O=c1c2ncc3c(c(CN4CCC(O)CC4)cn3Cc3ccc(F)cc3)c2ccn1O [Example 53, 3-(4-fluorobenzyl)-7-hydroxy-1-[(4-hydroxypiperidin-1-yl)methyl]-3,7-dihydro-6H-pyrrolo[2,3-c]-1,7-naphthyridin-6-one] | 7
CN(C)S(=O)(=O)c1cn(Cc2ccc(F)cc2)c2cnc3c(=O)n(O)ccc3c12 [Example 23, 3-(4-fluorobenzyl)-7-hydroxy-N,N-dimethyl-6-oxo-6,7-dihydro-3H-pyrrolo[2,3-c]-1-naphthyridine-1-sulfonamide] | 10
CCCCCN(C)Cc1cn(Cc2ccc(F)cc2)c2cnc3c(=O)n(O)ccc3c12 [Example 11, 3-(4-fluorobenzyl)-7-hydroxy-1-{[methyl(pentyl)amino]methyl}-3,7-dihydro-6H-pyrrolo[2,3-c]-1,7-naphthyridin-6-one] | 6
COCCOCc1cn(Cc2ccc(F)cc2)c2cnc3c(=O)n(O)ccc3c12 [Example 36, 3-(4-fluorobenzyl)-7-hydroxy-1-[(2-methoxyethoxy)methyl]-3,7-dihydro-6H-pyrrolo[2,3-c]-1,7-naphthyridin-6-one] | 20
O=C(NCCc1cnccn1)c1cn(Cc2ccc(F)cc2)c2cnc3c(=O)n(O)ccc3c12 [Example 28, 3-(4-fluorobenzyl)-7-hydroxy-6-oxo-N-(2-pyrazin-2-ylethyl)-6,7-dihydro-3H-pyrrolo[2,3-c]-1,7-naphthyridine-1-carboxamide] | 12
CCCCc1cc2c(ncc3c2ccn3Cc2ccc(F)cc2)c(=O)n1O [Example 46, 8-butyl-3-(4-fluorobenzyl)-7-hydroxy-3,7-dihydro-6H-pyrrolo[2,3-c]-1,7-naphthyridin-6-one] | 49
O=c1c2ncc3c(c(COC4CCOCC4)cn3Cc3ccc(F)cc3)c2ccn1O [Example 37, 3-(4-fluorobenzyl)-7-hydroxy-1-[(tetrahydro-2H-pyran-4-yloxy)methyl]-3,7-dihydro-6H-pyrrolo[2,3-c]-1,7-naphthyridin-6-one] | 23
O=C1c2ncc3c(ccn3Cc3ccc(F)cc3)c2CCCN1O [Example 45, 3-(4-fluorobenzyl)-7-hydroxy-7,8,9,10-tetrahydropyrrolo[3′,2′: 4,5]pyrido[2,3-c]azepin-6(3H)-one] | 24
CN1CCN(Cc2cn(Cc3ccc(F)cc3)c3cnc4c(=O)n(O)ccc4c23)CC1 [Example 7, 3-(4-fluorobenzyl)-7-hydroxy-1-[(4-methylpiperazin-1-yl)methyl]-3,7-dihydro-6H-pyrrolo[2,3-c]-1,7-naphthyridin-6-one] | 17
O=c1c2ncc3c(c(S(=O)(=O)NCc4ccc(F)cc4)cn3Cc3ccc(F)cc3)c2ccn1O [Example 25, N,3-bis(4-fluorobenzyl)-7-hydroxy-6-axo-6,7-dihydro-3H-pyrrolo[2,3-c]-1,7-naphthyridine-1-sulfonamide] | 35
O=c1c2ncc3c(c(CNCc4ccc(C(F)(F)F)cc4)cn3Cc3ccc(F)cc3)c2ccn1O [Example 43, 3-(4-fluorobenzyl)-7-hydroxy-1-({[4-(trifluoromethyl)benzyl]amino}methyl)3,7-dihydro-6H-pyrrolo[2,3-c]-1,7-naphthyridin-6-one] | 122
CCN(Cc1cn(Cc2ccc(F)cc2)c2cnc3c(=O)n(O)ccc3c12)C1CCCCC1 [Example 14, 1-{[cyclohexyl(ethyl)amino]methyl}-3-(4-fluorobenzyl)-7-hydroxy-3,7-dihydro-6H-pyrrolo[2,3-c]-1,7-naphthyridin-6-one] | 13
O=c1c2ncc3c(c(S(=O)(=O)NCC(F)(F)F)cn3Cc3ccc(F)cc3)c2ccn1O [Example 24, 3-(4-fluorobenzyl)-7-hydroxy-6-oxo-N-(2,2,2-trifluoroethyl)-6,7-dihydro-3H-pyrrolo[2,3-c]-1,7-naphthyridine-1-sulfonamide] | 5
O=C1c2ncc3c(ccn3Cc3ccc(F)cc3)c2CCCN1O [Example 3, 3-(4-Fluorobenzyl)-7-hydroxy-7,8,9,10-tetrahydropyrrolo[3′,2′:4,5]pyrido[2,3-c]azepin-6(3H)-one] | 17
CN(Cc1cnn(-c2ccccc2)c1)Cc1cn(Cc2ccc(F)cc2)c2cnc3c(=O)n(O)ccc3c12 [Example 59, 3-(4-fluorobenzyl)-7-hydroxy-1-({methyl[(1-phenyl-1H-pyrazol-4-yl)methyl]amino}methyl)-3,7-dihydro-6H-pyrrolo[2,3-c]-1,7-naphthyridin-6-one] | 19
O=c1c2ncc3c(ccn3Cc3ccc(F)cc3)c2ccn1O [Example 1, 3-(4-Fluorobenzyl)-7-hydroxy-3,7-dihydro-6H-pyrrolo[2,3-c]-1,7-naphthyridin-6-one] | 20
Cc1cnc(CNCc2cn(Cc3ccc(F)cc3)c3cnc4c(=O)n(O)ccc4c23)cn1 [Example 42, 3-(4-fluorobenzyl)-7-hydroxy-1-({[(5-methylpyrazin-2-yl)methyl]amino)methyl)-3,7-dihydro-6H-pyrrolo[2,3-c]-1,7-naphthyridin-6-one] | 54
